Experimental data reported in US8519003B2, “Phenoxyphenylamidines as fungicides” (priority 2007, dated 2013).

Assays:
[1] = logP determination (acidic / HCOOH and neutral); settings: for chromatographic logP: acidic, HCOOH (formic acid)
Podosphaera leucotricha = assay: Podosphaera test (apple)/protective; assay type: in vivo; settings: protective, active compound concentration 100 ppm, evaluation 10 days after inoculation
Method: (§1) Podosphaera Test (Apple)/Protective [table] To produce a suitable preparation of active compound, 1 part by weight of N-ethyl-N-methyl-N′-[4-phenoxy-2,5-xylyl]formamidine (according to formula (1)) is mixed with the stated amounts of solvent and emulsifier, and the concentrate is diluted with water to the desired concentration. To test for protective activity, young plants are sprayed with the active compound preparation at the stated application rate. After the spray coating has dried on, the plants are inoculated with an aqueous spore suspension of the apple mildew pathogen Podosphaera leucotricha. The plants are then placed in a greenhouse at about 23° C. and a relative atmospheric humidity of about 70%. Evaluation is carried out 10 days after the inoculation. 0% means an efficacy which corresponds to that of the control, whereas an efficacy of 100% means that no infection is observed.

Sphaerotheca fuliginea = assay: Sphaerotheca test (cucumber)/protective; assay type: in vivo; settings: protective, active compound concentration 100 ppm, evaluation 7 days after inoculation
Method: as §1, with “Sphaerotheca Test (Cucumber)/Protective” for “Podosphaera Test (Apple)/Protective”, “Sphaerotheca Test (Cucumber)/Protective [table] To” for “Podosphaera Test (Apple)/Protective [table] To”, “suspension of Sphaerotheca fuliginea. The plants” for “suspension of the apple mildew pathogen Podosphaera leucotricha. The plants”, “of about 90%. Evaluation is” for “of about 70%. Evaluation is”, “carried out 7 days after” for “carried out 10 days after”

Uromyces appendiculatus = assay: Uromyces test (bean)/protective; assay type: in vivo; settings: protective, active compound concentration 10 ppm, evaluation 10 days after inoculation
Method: as §1, with “Uromyces” for “Podosphaera”, “(Bean)/Protective” for “(Apple)/Protective”, “bean rust” for “apple mildew”, “Uromyces appendiculatus and then remain in an incubation cabin at about 20° C. and 100% relative atmospheric humidity for 1 day.” for “Podosphaera leucotricha.”, “21°” for “23°”, “90%.” for “70%.”

[2] = tested on: Erysiphe graminis f. sp. hordei; assay: Erysiphe test (barley)/protective; assay type: in vivo; settings: protective, active compound concentration 500 ppm, evaluation 7 days after inoculation
Method: Erysiphe Test (Barley)/Protective [table] To produce a suitable preparation of active compound, 1 part by weight of N-ethyl-N-methyl-N′-[4-phenoxy-2,5-xylyl]formamidine (according to formula (1)) is mixed with the stated amounts of solvent and emulsifier, and the concentrate is diluted with water to the desired concentration. To test for protective activity, young cereal plants are sprayed with the active compound preparation at the stated application rate. 1 day after the treatment, the plants are inoculated with spores of Erysiphe graminis f. sp. hordei. The plants are then placed in a greenhouse at 70% relative atmospheric humidity and a temperature of 18° C. Evaluation is carried out 7 days after the inoculation. 0% means an efficacy which corresponds to that of the control, whereas an efficacy of 100% means that no infection is observed.

## Cc1cc(Oc2ccccc2)c(C)cc1N [4-phenoxy-2,5-xylidine]
[1]
  chromatographic logP: 1.92

## CCN(C)C=Nc1cc(C)c(Oc2ccccc2)cc1C [(1), N-ethyl-N-methyl-N′-[4-phenoxy-2,5-xylyl]formamidine]
Podosphaera leucotricha
  efficacy: ≥ 70%
Sphaerotheca fuliginea
  efficacy: ≥ 70%
Uromyces appendiculatus
  efficacy: ≥ 70%
[2]
  efficacy: ≥ 70%
[1]
  logP: 4.67
  chromatographic logP: 1.87
